Assays:
[1] = system: P815-A2/K^b cells; experiment: Sensitization of P815-A2/K^b target cells for CTL lysis, chromium release assay; type: cell-based, mouse
Protocol: FIG. 1. In vitro sensitization of target cells for peptide-specific lysis by hPER1 conjugates.
Further, ^51Cr-labeled P815-A2/K^b cells were pulsed with 10^−6 g/ml 280-9V peptide ([…]) or hPER1-280-9V ([…]) or were left untreated (no peptide) and incubated for 1 hour at 37° C. The cells were then washed and tested for CTL recognition in a standard 4-hour chromium release assay, using T cells obtained from the spleens of HLA-A2/K^b transgenic mice immunized with 280-9V peptide in incomplete Freund's adjuvant. Where indicated, 5 μg/ml brefeldin A (BFA) was included in the assay, to block the surface expression of nascent class I MHC molecules. […] The level of CTL killing is reduced if the hPER1-280-9V-pulsed target cells are treated with brefeldin A, which blocks the intracellular transport of newly synthesized MHC molecules.

[2] = system: PBMCs from an HLA-A2-positive patient; experiment: In vitro induction of human CTL in PBMC culture, chromium release assay; type: cell-based; conditions: repeated in vitro stimulation, day 42, C1R-A2 target cells pulsed with 280-9V
Protocol: FIG. 2. In vitro induction of human T cell responses using a hPER1 conjugate peptide.
Peripheral blood mononuclear cells (PBMCs) from an HLA-A2-positive patient were cultured in the presence of IL-2 (50 U/ml), IL-7 (10 ng/ml), LPS (10 μg/ml), CD40-ligand expressing 3T3 cells, and peptide (10 μg/ml of 280-9V or hPER1-280-9V). On days 11, 22, and 32 the cells were restimulated by culturing in the presence of IL-2 (50 U/ml) and IL-7 (10 ng/ml) and autologous, CD40-ligand activated PBMCs pulsed with peptide (100 μg/ml of 280-9V or hPER1-280-9V) for 3 hours.

[3] = system: HLA-A2/K^b transgenic mice; experiment: s.c. immunization without adjuvant, CTL assay (FIG. 3B); type: in vivo, mouse; conditions: 100 μg s.c. plus T-helper peptide, no adjuvant, boosts days 14 and 28
Description: Mice were similarly boosted on days 14 and 28. […] Average responses from each group are shown.

[4] = system: HLA-A2/K^b transgenic mice; conditions: 100 μg s.c. plus T-helper peptide, no adjuvant, boosts days 14 and 28
Description: Mice were similarly boosted on days 14 and 28. On day 42, splenocytes (2 mice per group) were individually restimulated in vitro for 6 days with the appropriate wild type peptide, and then tested for either IFN-γ secretion by ELISPOT (FIG. 3A) or CTL assay (FIG. 3B) using peptide-pulsed C1R-A2 cells. On day 57, the remaining mice in each group were similarly tested. Average responses from each group are shown.

[5] = system: HLA-A2/Kb transgenic mice; experiment: s.c. peptide immunization, gp100-154 CTL chromium release (FIG. 5); conditions: 50 ug s.c., boosts days 21 and 42, day 63
Protocol: CTL responses in HLA-A2/Kb transgenic mice following subcutaneous (s.c.) injection of peptide. Mice were immunized s.c. with 50 ug of the indicated peptides and boosted on days 21 and 42 following the first injection. Splenocytes from immunized animals were harvested on day 63 post immunization, re-stimulated with the native gp100-154 peptide for 5 days, and tested for CTL activity in a standard chromium release assay using target cells pulsed with gp100-154 peptide.
Furthermore, CTL responses were assessed in HLA-A2/K^b transgenic mice (Sherman strain) following s.c. immunization with gp100-154 peptide alone, conjugated to hPER1 or AntpHD with or without linker FVYVW. Mice were boosted on days 21 and 42 and splenocytes from vaccinated animals were harvested on day 63 and tested for CTL activity after 5 days of restimulation in vitro.

| Sequence | level of CTL killing of peptide-pulsed target cells treated with brefeldin A ([1]; 5 μg/ml brefeldin A in the assay) | sensitization of P815-A2/K^b target cells for CTL recognition ([1]; 10^−6 g/ml peptide, 1 hour at 37° C., 4-hour chromium release) | induction of 280-9V-specific human CTLs [2] | peptide-specific CTL responses [3] | 154-specific IFN-γ responses (ELISPOT) [4] | CTL responses against gp100-154 [5] |
| --- | --- | --- | --- | --- | --- | --- |
| RRHHRRSKAKRSRYLEPGPVTV [hPER1-280-9V] | reduced | can be sensitized | can be induced | can be induced | – | – |
| GRRHHRRSKAKRSRKTWGQYWQV [hPER1, no linker, gp100-154] | – | – | – | can be induced | can be induced | a weak response was observed |

Reference: patent US20060002946A1, “Targeted immunogens” (Aventis Pasteur, Inc., priority 2003, published 2006)
